According to article PMC6711809 (Bioorganic & medicinal chemistry letters, 2019):

Target: HIV-1 protease (Human immunodeficiency virus type 1 group M subtype B, UniProt P04585)
Test: HIV-1 protease inhibitory activity
Format: biochemical
Details: for fold better inhibitory activity than 3i: compared with 3i

COc1ccc(S(=O)(=O)N(CC(C)C)C[C@@H](O)[C@H](Cc2ccccc2)Nc2c(N(C)[C@H]3CO[C@H]4OCC[C@H]43)c(=O)c2=O)cc1 [Inhibitor 3k]
fold better inhibitory activity than 3i: over 10 fold

COc1ccc(S(=O)(=O)N(CC(C)C)C[C@@H](O)[C@H](Cc2ccccc2)Nc2c(N(C)[C@@H]3CCOC3)c(=O)c2=O)cc1 [Inhibitor 3h]
fold more potent than 3g (compared with 3g): over 775 fold

COCCOc1c(N[C@@H](Cc2ccccc2)[C@H](O)CN(CC(C)C)S(=O)(=O)c2ccc(OC)cc2)c(=O)c1=O [Inhibitor 3b]
loss of protease inhibitory activity relative to 3a (compared with 3a): over 4 fold

COc1ccc(S(=O)(=O)N(CC(C)C)C[C@@H](O)[C@H](Cc2ccccc2)Nc2c(N(C)[C@H]3CCOC3)c(=O)c2=O)cc1 [Inhibitor 3g]
potency enhancement over compound 3e (compared with 3e): 15 fold

COc1ccc(S(=O)(=O)N(CC(C)C)C[C@@H](O)[C@H](Cc2ccccc2)Nc2c(N[C@@H]3CO[C@@H]4OCC[C@@H]43)c(=O)c2=O)cc1 [Inhibitor 3j]
fold better inhibitory activity than 3i: ~10 fold
